Source: ChEMBL document CHEMBL1201862, “PubChem BioAssay data set” (2004)
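Cultured in 96-well plates, cells were exposed to test compound for 48 hours across five concentrations. GI50 = concentration required for 50% inhibition of growth.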 The source made the active and inactive calls. Cut-off read from the data, not from the text of the source: active = GI50 up to about 1.1 µM and inactive = higher.

Experiments:
Assay in all cases: NCI-60 cell line screen, 48 h
786-0 = system: 786-0
A498 = system: A498
HCT-116 = system: HCT-116
K562 = system: K562
KM12 = system: KM12
LXFL 529 = system: LXFL 529
Malme-3M = system: Malme-3M
NCI-H226 = system: NCI-H226
NCI-H23 = system: NCI-H23
RPMI-8226 = system: RPMI-8226
SF-539 = system: SF-539
SNB-19 = system: SNB-19
TK-10 = system: TK-10
UO-31 = system: UO-31
M14 = system: M14
OVCAR-4 = system: OVCAR-4
SK-OV-3 = system: SK-OV-3
UACC-62 = system: UACC-62
MCF7 = system: MCF7
T47D = system: T47D

Row | Compound | GI50 (786-0) | GI50 (A498) | GI50 (HCT-116) | GI50 (K562) | GI50 (KM12) | GI50 (LXFL 529) | GI50 (Malme-3M) | GI50 (NCI-H226) | GI50 (NCI-H23) | GI50 (RPMI-8226) | GI50 (SF-539) | GI50 (SNB-19) | GI50 (TK-10) | GI50 (UO-31) | GI50 (M14) | GI50 (OVCAR-4) | GI50 (SK-OV-3) | GI50 (UACC-62) | GI50 (MCF7) | GI50 (T47D)
1 | NCCn1cnc2nc(NC(=O)c3ccccc3)[nH]c(=O)c21 | > 100 µM (inactive) | > 100 µM (inactive) | > 100 µM (inactive) | > 100 µM (inactive) | > 100 µM (inactive) | > 100 µM (inactive) | > 100 µM (inactive) | > 100 µM (inactive) | > 100 µM (inactive) | > 100 µM (inactive) | > 100 µM (inactive) | > 100 µM (inactive) | > 100 µM (inactive) | > 100 µM (inactive) |  |  |  |  |  | 
2 | COC(=O)NC(=O)c1cn(C2CCCCC2)c(=O)[nH]c1=O | > 100 µM (inactive) | > 100 µM (inactive) | > 100 µM (inactive) | > 100 µM (inactive) | > 100 µM (inactive) | > 100 µM (inactive) | > 100 µM (inactive) | > 100 µM (inactive) | > 100 µM (inactive) | > 100 µM (inactive) | > 100 µM (inactive) | > 100 µM (inactive) | > 100 µM (inactive) | > 100 µM (inactive) | > 100 µM (inactive) | > 100 µM (inactive) | > 100 µM (inactive) | > 100 µM (inactive) |  | 
3 | COc1ccc2c(c1OCC(=O)O)C(=O)C(CCC(=O)O)CC2 (stereo unspecified) | > 100 µM (inactive) | > 100 µM (inactive) | > 100 µM (inactive) |  |  | > 100 µM (inactive) |  |  | > 100 µM (inactive) | > 100 µM (inactive) | > 100 µM (inactive) | > 100 µM (inactive) | > 10 µM (inactive) |  | > 100 µM (inactive) | > 100 µM (inactive) | > 100 µM (inactive) | > 100 µM (inactive) |  | 
4 | N/N=C(/Cc1nc2ccc(C(=O)c3ccccc3)cc2nc1O)C(=O)Nc1ccc([N+](=O)[O-])cc1[N+](=O)[O-] | 71.9 µM (inactive) | > 10 µM (inactive) | > 10 µM (inactive) | > 10 µM (inactive) | > 100 µM (inactive) | > 10 µM (inactive) | > 100 µM (inactive) | > 10 µM (inactive) | > 10 µM (inactive) | > 10 µM (inactive) | > 100 µM (inactive) | > 100 µM (inactive) | > 100 µM (inactive) | 68.2 µM (inactive) | > 10 µM (inactive) | 27.3 µM (inactive) | 55.7 µM (inactive) | 49 µM (inactive) |  | 
5 | O=C1C(=O)N(C2C3CC4CC(C3)CC2C4)C(=O)C(=O)C1c1nc2ccccc2o1 (stereo unspecified) | 26.3 µM (inactive) |  | 37 µM (inactive) | 21.1 µM (inactive) | > 100 µM (inactive) | 46.9 µM (inactive) | 36 µM (inactive) | > 100 µM (inactive) | 41.6 µM (inactive) | 52.4 µM (inactive) | 90.6 µM (inactive) | > 100 µM (inactive) | > 100 µM (inactive) | > 100 µM (inactive) | 83 µM (inactive) | > 100 µM (inactive) | > 100 µM (inactive) | > 100 µM (inactive) |  | 
6 | COc1cccc(NC(=O)CSc2nnc(-c3ccc(/N=C\c4ccc(Cl)cc4)cc3)o2)c1 | 24.5 µM (inactive) |  | 17.2 µM (inactive) | 32.6 µM (inactive) | 14.2 µM (inactive) | 19.8 µM (inactive) | 17.7 µM (inactive) | 22.8 µM (inactive) | 19.8 µM (inactive) | 18.2 µM (inactive) |  | 19.5 µM (inactive) | 30.6 µM (inactive) | 18.5 µM (inactive) | 19.4 µM (inactive) | 37.4 µM (inactive) | 33.3 µM (inactive) | 14.3 µM (inactive) |  | 
7 | O=C(O)c1ccc(NNc2cc(=O)[nH]c(=O)[nH]2)cc1 | > 100 µM (inactive) | > 100 µM (inactive) | > 100 µM (inactive) | > 100 µM (inactive) | > 100 µM (inactive) |  | > 100 µM (inactive) | > 100 µM (inactive) | > 100 µM (inactive) | > 100 µM (inactive) | > 100 µM (inactive) | > 100 µM (inactive) | > 100 µM (inactive) | > 100 µM (inactive) | > 100 µM (inactive) | > 100 µM (inactive) | > 100 µM (inactive) | > 100 µM (inactive) | > 100 µM (inactive) | > 100 µM (inactive)
8 | C/C(CC(=O)Nc1ccc(Cl)cc1)=N\NC(N)=S | > 100 µM (inactive) | > 100 µM (inactive) | 71.4 µM (inactive) | 5.43 µM (inactive) | 21.4 µM (inactive) | 5.47 µM (inactive) | > 100 µM (inactive) |  | > 100 µM (inactive) | 61.8 µM (inactive) | 34.2 µM (inactive) |  | > 100 µM (inactive) |  | 6.47 µM (inactive) |  | > 100 µM (inactive) | 4.95 µM (inactive) |  | 
9 | CCOC1OCCCC1Br (stereo unspecified) | > 100 µM (inactive) | > 100 µM (inactive) | > 100 µM (inactive) | > 100 µM (inactive) | > 100 µM (inactive) |  | > 100 µM (inactive) | > 100 µM (inactive) | > 100 µM (inactive) | > 100 µM (inactive) | > 100 µM (inactive) | > 100 µM (inactive) | > 100 µM (inactive) | > 100 µM (inactive) | > 100 µM (inactive) | > 100 µM (inactive) | > 100 µM (inactive) | 72.1 µM (inactive) | > 100 µM (inactive) | > 100 µM (inactive)
10 | NC1CCN(c2nc3ccccc3c3c2CCCC3)CC1 | 3.8 µM (inactive) | 10.3 µM (inactive) | 4.01 µM (inactive) | 1.62 µM (inactive) | 4.07 µM (inactive) |  | 7.41 µM (inactive) | 10.2 µM (inactive) | 14.1 µM (inactive) | 1.8 µM (inactive) | 3.33 µM (inactive) | 8.67 µM (inactive) | 10.7 µM (inactive) | 4.05 µM (inactive) | 1.99 µM (inactive) | 1.38 µM (inactive) | 12.6 µM (inactive) | 1.95 µM (inactive) | 3.07 µM (inactive) | 2.18 µM (inactive)
11 | CC(=O)OCC1OC(OCCCOP(=S)(OCCC#N)OCC2OC(n3ccc(N)nc3=O)C(OC(=O)c3ccccc3)C2OC(=O)c2ccccc2)C(OC(C)=O)C(OC(C)=O)C1OC(C)=O (stereo unspecified) | > 100 µM (inactive) | > 100 µM (inactive) | > 100 µM (inactive) | > 100 µM (inactive) | > 100 µM (inactive) |  | > 100 µM (inactive) | > 100 µM (inactive) | > 100 µM (inactive) | > 100 µM (inactive) | > 100 µM (inactive) | > 100 µM (inactive) | > 100 µM (inactive) | > 100 µM (inactive) | > 100 µM (inactive) | > 100 µM (inactive) | > 100 µM (inactive) | > 100 µM (inactive) | 46.6 µM (inactive) | > 100 µM (inactive)
12 | O=[N+]([O-])c1cc(I)cc(/C=N/NS(=O)(=O)c2ccc(Cl)cc2)c1O | 21.1 µM (inactive) | 22.9 µM (inactive) | 21.2 µM (inactive) | 20 µM (inactive) | 18.2 µM (inactive) | 19.4 µM (inactive) | 22 µM (inactive) |  | 16.3 µM (inactive) | 25.4 µM (inactive) | 23 µM (inactive) | 29.9 µM (inactive) | 30.8 µM (inactive) | 20.1 µM (inactive) | 25.2 µM (inactive) | 30.5 µM (inactive) | 24.7 µM (inactive) | 26.1 µM (inactive) |  | 
13 | CCC(O)C1Cc2c(C)cc3c(c2O1)C(=O)c1ccccc1C3=O (stereo unspecified) | 25.8 µM (inactive) | 18 µM (inactive) | 40.6 µM (inactive) | 29.8 µM (inactive) | 25.8 µM (inactive) | 28.8 µM (inactive) | 34.6 µM (inactive) | 46.8 µM (inactive) | 33.3 µM (inactive) | 27.9 µM (inactive) |  | 36.3 µM (inactive) | 85.3 µM (inactive) | 21 µM (inactive) | 40.1 µM (inactive) | 33.3 µM (inactive) | 22.6 µM (inactive) | 28.8 µM (inactive) |  | 
14 | Cc1nn(C)c(=S)n(C)c1=O | 3.27 µM (inactive) | 3.22 µM (inactive) | 0.416 µM (active) | 0.343 µM (active) |  | 0.515 µM (active) | 2.89 µM (inactive) | 7.53 µM (inactive) | 0.483 µM (active) | 0.556 µM (active) | 0.83 µM (active) | 0.802 µM (active) | 4.69 µM (inactive) | 0.229 µM (active) | 0.773 µM (active) | 5.83 µM (inactive) | 14.7 µM (inactive) | 0.757 µM (active) |  | 
15 | CC(=O)Oc1ccc2c(=O)c(C(C)=O)coc2c1 | > 100 µM (inactive) | 58.1 µM (inactive) | > 100 µM (inactive) | > 100 µM (inactive) | > 100 µM (inactive) | > 100 µM (inactive) |  | 83.9 µM (inactive) | > 100 µM (inactive) | > 100 µM (inactive) | > 100 µM (inactive) | > 100 µM (inactive) | > 100 µM (inactive) | > 100 µM (inactive) | > 100 µM (inactive) | > 100 µM (inactive) |  |  |  | 
16 | NC(=O)NC(=O)c1cccc(NC(=O)CF)c1 | > 100 µM (inactive) | > 100 µM (inactive) | > 100 µM (inactive) | > 100 µM (inactive) | > 100 µM (inactive) |  | > 100 µM (inactive) | 73.5 µM (inactive) | > 100 µM (inactive) | > 100 µM (inactive) | > 100 µM (inactive) | > 100 µM (inactive) | > 100 µM (inactive) | 31 µM (inactive) | 41.4 µM (inactive) | > 100 µM (inactive) | > 100 µM (inactive) | > 100 µM (inactive) | > 100 µM (inactive) | > 100 µM (inactive)
